Assay results published in patent EP4748841A1, “BICYCLO[5,6] IMIDAZOLE PYRIMIDONE DERIVATIVE AND PREPARATION METHOD THEREFOR AND USE THEREOF” (Shujing Biopharma Co., Ltd, priority 2023, dated 2025).

Experiments:
Format in all cases: in vitro ADME
[1] = Liver microsome stability experiment (SD rat); details: for CLint scaled at 1 µM: SD, rat, liver microsomes, pH 7.4, SD rat liver microsomes
Experimental: (§1) This experiment aimed to evaluate the phase I metabolic stability of the compounds of the present disclosure in liver microsomes of SD rats, beagle dogs, cynomolgus monkeys, and humans.
(§2) • (1) Buffer preparation: 73.21 g of dipotassium hydrogen phosphate trihydrate and 10.78 g of potassium dihydrogen phosphate were dissolved in 4000 mL of ultrapure water. The pH of the solution was adjusted to within 7.40 ± 0.10 using 10% phosphoric acid or 1 M potassium hydroxide, resulting in a final concentration of 100 mM. • (2) Solution preparation and dilution: Stock solutions of the test compounds at a concentration of 10 mM were prepared in dimethyl sulfoxide (DMSO) and stored at 4 °C, and they were diluted into 100 µM working solutions with pure acetonitrile when used. A stock solution of the control compound testosterone at a concentration of 10 mM was prepared in DMSO and stored at -20 °C, and it was diluted into a 400 µM working solution with pure acetonitrile when used. • (3) Termination solution preparation: The termination solution was an acetonitrile solution containing an internal standard (terfenadine). The prepared termination solution was stored in a refrigerator at 2-8 °C. • (4) Liver microsome solution preparation: Liver microsomes from various species (SD rat, beagle dog, cynomolgus monkey, and human) were diluted into 20× working solutions using 100 mM potassium phosphate buffer. The final concentration of the liver microsomes in the reaction system was 0.5 mg/mL. • (5) Reduced nicotinamide adenine dinucleotide phosphate (NADPH) regeneration system preparation: Appropriate amounts of nicotinamide adenine dinucleotide phosphate (NADP), glucose-6-phosphate (G6P), magnesium chloride (MgCl2), and glucose-6-phosphate dehydrogenase (G6PDH) were weighed to prepare stock solutions at concentrations of 65.33 mM, 330 mM, 300 mM, and 250 Units/mL, respectively. The four stock solutions described above were each added to an appropriate amount of buffer, and the mixture was mixed well by gently inverting up and down. The final concentrations of NADP, G6P, MgCl2, and G6PDH in the NADPH regeneration system were 2.65 mM, 10.2 mM, 6.12 mM, and 2.45 Units/mL, respectively. • (6) Incubation process: The incubation was completed in 96-well plates. Several incubation plates were prepared and named T0, T5, T10, T20, T40, T60, and NCF60, respectively. The first 6 plates corresponded to reaction time points of 0 min, 5 min, 10 min, 20 min, 40 min, and 60 min, respectively. The NCF60 plate was incubated for 60 min with potassium phosphate buffer replacing the NADPH regeneration system solution. Samples under all conditions were prepared in triplicate.
(§3) 2 µL of the test compound or control compound and 100 µL of microsome working solution (containing 1 mg/mL liver microsome protein) were added to each of the T0, T5, T10, T20, T40, T60, and NCF60 plates, and only the microsome working solution was added to the Blank 60 plate. The plates described above were then pre-incubated in a 37 °C water bath for about 10 min.
(§4) After the pre-incubation was completed, 98 µL of the NADPH regeneration system working solution was added to each sample well except for the NCF60 plate and the T0 plate to initiate the reaction, and 98 µL of potassium phosphate buffer was added to each well of the NCF60 plate. Therefore, for the sample wells containing the test sample or control substance working solution, the final concentrations of TC and testosterone in the reaction were 1 µM and 4 µM, respectively, the concentration of liver microsomes was 0.5 mg/mL, and the final concentrations of DMSO and acetonitrile in the reaction system were 0.01% (v/v) and 0.99% (v/v), respectively.
(§5) After incubation for an appropriate time (e.g., 5 min, 10 min, 20 min, 40 min, and 60 min), 600 µL of a termination solution (an acetonitrile solution containing 100 ng/mL […]) was added to each test compound sample well and control compound sample well to terminate the reaction. […]

[2] = Liver microsome stability experiment (cynomolgus monkey); details: pH 7.4, Cynomolgus monkey liver microsomes, 0.5 mg/mL; for CLint scaled at 1 µM: cynomolgus monkey, liver microsomes
Experimental: as §1, §2, §3, §4, §5

[3] = Liver microsome stability experiment (human); details: for CLint scaled at 1 µM: human, liver microsomes, pH 7.4, Human liver microsomes
Experimental: as §1, §2, §3, §4, §5

[4] = Liver microsome stability experiment (beagle dog); details: for CLint scaled at 1 µM: beagle, dog, liver microsomes, pH 7.4, Beagle dog liver microsomes
Experimental: as §1, §2, §3, §4, §5

[5] = 0.5 mg/mL, 1 µM, read-out: CL(liver)
[6] = 0.5 mg/mL, 1 µM, read-out: CLint(liver)
[7] = read-out: Clearance rate classification

CLint scaled at 1 µM [1, 5]: < 10.8 mL/min/kg | CLint scaled at 1 µM [1, 6]: < 13.4 mL/min/kg | CLint scaled at 1 µM [1, 7]: ≤ 23.7 mL/min/kg | half-life at 1 µM ([1]; pH 7.4, SD rat liver microsomes, 0.5 mg/mL, 1 µM): > 186 min | CLint scaled at 1 µM ([2]; read-out: CL(liver)): 39.8 mL/min/kg | CLint scaled at 1 µM ([2]; read-out: CLint(liver)): 461 mL/min/kg | half-life at 1 µM [2]: 4.06 min | CLint scaled at 1 µM [3, 5]: 15.4 mL/min/kg | CLint scaled at 1 µM [3, 6]: 60.3 mL/min/kg | CLint scaled at 1 µM [3, 7]: > 48.3 mL/min/kg | half-life at 1 µM ([3]; pH 7.4, Human liver microsomes, 0.5 mg/mL, 1 µM): 20.7 min | CLint scaled at 1 µM [4, 5]: 8.8 mL/min/kg | CLint scaled at 1 µM [4, 6]: 12.4 mL/min/kg | CLint scaled at 1 µM [4, 7]: ≤ 13.2 mL/min/kg | half-life at 1 µM ([4]; pH 7.4, Beagle dog liver microsomes, 0.5 mg/mL, 1 µM): 162 min
SMILES: COCCN1CCC(N(Cc2ccc(-c3ccc(C(F)(F)F)cc3)cc2)C(=O)Cn2c(SCc3cccc(F)c3F)cc(=O)c3ccccc32)CC1 [Rilapladib]
